Molecules are shown by their SMILES. pEC50, pIC50: −log10 of the molar value. Where a name gives a salt, the structure may show the parent alone. Read-outs that look alike come from different tables or passages of the source. A value given as a limit tells only on which side of the number the result lay.

In test [1] the test system is T. brucei brucei Lister 427. The experiment in a line: Trypanosome replication assay. To be noted: 48 h, 48 h, values ±7%. The class given is cell-based, Trypanosoma brucei brucei.
Test [2] concerns HepG2 cells. Nature of the test: HepG2 cell toxicity (MTT) assay. Format: cell-based.
The test system of test [3] is T. cruzi. The experiment in a line: T. cruzi growth inhibition. The class given is cell-based, Trypanosoma cruzi. The conditions noted are these: for inhibition at 10 µM: read-out: T. cruzi % inh at 10 μM.
The subject of test [4] is L. major promastigote. The experiment in a line: L. major promastigote assay. Format: cell-based.
Test [5] has as its system L. major amastigote. The experiment in a line: L. major amastigote assay. Format: cell-based.
For test [6], the system named is P. falciparum D6. The experiment in a line: P. falciparum D6 assay. To be noted: strain D6. The class given is cell-based.
The test system of test [7] is P. falciparum W2. The experiment in a line: P. falciparum W2 assay. The class given is cell-based.
Test [8] has as its system P. falciparum C235. Nature of the test: P. falciparum C235 assay. The class given is cell-based. The conditions noted are these: read-out: P. falciparum C235 (EC50).
The mark [9] stands for this setting: Trypanosoma brucei, concentration giving 50% inhibition of growth of T brucei brucei Lister 427 cells, read-out: Tbb EC50.
Where [10] appears, read: Homo sapiens, HepG2, 48 h, MTT, 48 hour incubation, read-out: HepG2 IC50.
Where [11] appears, read: Plasmodium falciparum, strain W2, read-out: P. falciparum W2 (EC50).
The mark [12] stands for this setting: Plasmodium falciparum, strain C235.
[13] abbreviates: Trypanosoma brucei, read-out: Tbb EC50, concentration giving 50% inhibition of growth of T brucei brucei Lister 427 cells.

Consider `O=S(=O)(c1ccc(-c2ccc3ncnc(Nc4ccc(OCc5cc(F)cc(F)c5F)c(Cl)c4)c3c2)cc1)N1CCOCC1` [Compound 20m, N-(3-Chloro-4-((2,3,5-trifluorobenzyl)oxy)phenyl)-6-(4-(morpholinosulfonyl)phenyl)quinazolin-4-amine Hydrochloride], for which the pEC50 is 5.95 in test [1] (setting [9]); 5.96 in test [1] (concentration giving 50% inhibition of growth of T brucei brucei Lister 427 cells, listed as NEU-569, Hydrochloride, read-out: Tbb EC50); 5.52 in test [4] (Leishmania major); 5.52 in test [5] (Leishmania major); 6.85 in test [6] (Plasmodium falciparum); 6.35 in test [7] (setting [11]). In addition, the pEC50 in test [8] (setting [12]) is 6.62. Further, the pIC50 in test [2] (setting [10]) is below 5.52. Besides, in test [3] (Trypanosoma cruzi), the inhibition at 10 µM is 14%.
For the compound `O=S(=O)(c1ccc(-c2ccc3ncnc(Nc4ccc(OCc5cccc(F)c5)cc4)c3c2)cc1)N1CCOCC1` [Compound 20n, N-(4-((3-Fluorobenzyl)oxy)phenyl)-6-(4-(morpholinosulfonyl)phenyl)quinazolin-4-amine], the pEC50 in test [1] (setting [9]) is 6.19; in test [4] (Leishmania major), 6.32; in test [5] (Leishmania major) it was 6.33; in test [6] (Plasmodium falciparum), 6.36; in test [7] (setting [11]) it was 5.70; in test [8] (setting [12]) it was 6.07. Also, the pIC50 in test [2] (setting [10]) is below 4.82. For the same compound, the inhibition at 10 µM in test [3] (Trypanosoma cruzi) amounted to 10%.
In the case of `COc1cc(Nc2ncnc3ccc(-c4ccc(S(=O)(=O)N5CCOCC5)cc4)cc23)ccc1OCc1cccc(F)c1` [Compound 20o, N-(4-((3-Fluorobenzyl)oxy)-3-methoxyphenyl)-6-(4-(morpholinosulfonyl)phenyl)quinazolin-4-amine], the pEC50 was 5.73 in test [1] (setting [9]); 5.72 in test [1] (concentration giving 50% inhibition of growth of T brucei brucei Lister 427 cells, listed as NEU-570, read-out: Tbb EC50); below 4.82 in test [4] (Leishmania major); below 4.82 in test [5] (Leishmania major); 6.36 in test [6] (Plasmodium falciparum); 6.19 in test [7] (setting [11]). The pEC50 in test [8] (setting [12]) was 6.22. In test [2] (setting [10]), the pIC50 was below 4.82. The inhibition at 10 µM in test [3] (Trypanosoma cruzi) was 2%.
For `Fc1cccc(COc2ccc(Nc3ncnc4ccc(-c5ccc(N6CCOCC6)cc5)cc34)cc2Cl)c1` [Compound 23b, N-(3-Chloro-4-((3-fluorobenzyl)oxy)phenyl)-6-(4-morpholinophenyl)quinazolin-4-amine], the pEC50 was 5.72 in test [1] (setting [13]); 5.72 in test [1] (read-out: Tbb EC50, concentration giving 50% inhibition of growth of T brucei brucei Lister 427 cells, listed as NEU-733); 5.36 in test [4] (Leishmania major); below 4.82 in test [5] (Leishmania major); 6.57 in test [6] (Plasmodium falciparum); 5.96 in test [7] (setting [11]). The pEC50 in test [8] (setting [12]) was 6.54. In addition, the pIC50 in test [2] (setting [10]) was 5.02. In test [3] (Trypanosoma cruzi), the inhibition at 10 µM stood at 10%.
For `Fc1cccc(COc2ccc(Nc3ncnc4ccc(-c5ccc(CN6CCOCC6)cc5)cc34)cc2Cl)c1` [Compound 23d], the pEC50 is 6.00 in test [1] (concentration giving 50% inhibition of growth of T brucei brucei Lister 427 cells, read-out: Tbb EC50); 6.22 in test [3]; 5.57 in test [4]; 5.23 in test [5]; 7.19 in test [6]; 7.00 in test [7] (strain W2, read-out: P. falciparum W2 (EC50)). In test [8] (strain C235), the pEC50 was 7.07. Further, the negative-log IC50 (pIC50) in test [2] (MTT, 48 hour incubation, read-out: HepG2 IC50) is 4.89.
As to `Fc1cccc(COc2ccc(Nc3ncnc4ccc(-c5cccc(N6CCCCC6)c5)cc34)cc2Cl)c1` [Compound 23g, N-(3-Chloro-4-((3-fluorobenzyl)oxy)phenyl)-6-(3-(piperidin-1-yl)phenyl)quinazolin-4-amine], the pEC50 in test [1] (setting [13]) is 6.12; in test [4] (Leishmania major), below 4.82; in test [5] (Leishmania major), below 4.82; in test [6] (Plasmodium falciparum), 6.19; in test [7] (Plasmodium falciparum, W2, read-out: P. falciparum W2 (EC50)) it was 5.74; in test [8] (Plasmodium falciparum), 5.96. The negative-log IC50 (pIC50) in test [2] (Homo sapiens, HepG2, 48 h, read-out: HepG2 IC50, MTT, 48 hour incubation) is below 4.82. Moreover, the inhibition at 10 µM in test [3] (Trypanosoma cruzi) was 24%.
As to `O=C(c1cccc(-c2ccc3ncnc(Nc4ccc(OCc5cccc(F)c5)c(Cl)c4)c3c2)c1)N1CCCCC1` [Compound 23k, (3-(4-((3-Chloro-4-((3-fluorobenzyl)oxy)phenyl)amino)-quinazolin-6-yl)phenyl)(piperidin-1-yl)methanone], the pEC50 in test [1] (setting [13]) was 6.85; in test [3] (Trypanosoma cruzi), below 4.30; in test [4] (Leishmania major), 5.46; in test [5] (Leishmania major), 5.46; in test [6] (Plasmodium falciparum) it was 6.28; in test [7] (setting [11]) it was 6.02. Also, the pEC50 in test [8] (setting [12]) was 6.24. Also, the negative-log IC50 (pIC50) in test [2] (setting [10]) is below 5.22.

Broadly, the pIC50 is the negative decadic logarithm of the IC50, by convention in mol/L.

The values above are taken from US20150259331A1, “PROTOZOAN PARASITE GROWTH INHIBITORS” (Northeastern University, priority 2014, published 2015).
